Assay results published in ChEMBL document CHEMBL1158906, “Biological Activities of Avarol Derivatives, 1. Amino Derivatives” (J Nat Prod, 1990).
≈ marks a conversion by molar mass, not a printed value.

What was measured:
[1] = test system: Staphylococcus aureus; assay: Antimicrobial activity against Staphylococcus aureus ATCC 25293 by serial dilution method; assay type: functional
[2] = test system: Artemia; assay: Toxicity against brine shrimp; assay type: organism-based; conditions: in vivo
[3] = test system: Agrobacterium tumefaciens; assay: Antitumor activity assessed as inhibition of Agrobacterium tumefaciens B6-induced tumor formation after 12 days by potato disk assay; assay type: functional

Row | SMILES | MIC [1] | LC50 [2] | inhibition (INH) [3]
1 | CCNC1=CC(=O)C=C(C[C@]2(C)[C@@H](C)CC[C@]3(C)C(C)=CCC[C@@H]23)C1=O | > 100 mg/L | 0.81 ppm | 54%
2 | CC1=CCC[C@H]2[C@](C)(CC3=CC(=O)C(N[C@@H](C)C(=O)O)=CC3=O)[C@@H](C)CC[C@]12C | 6.25 mg/L (≈ 15.6 µM) | 2 ppm | 38%
3 | CC1=CCC[C@H]2[C@](C)(CC3=CC(=O)C=C(N)C3=O)[C@@H](C)CC[C@]12C | 50 mg/L (≈ 153 µM) | 0.24 ppm | 53%
4 | CC1=CCC[C@H]2[C@](C)(CC3=CC(=O)C(N[C@@H]4[C@@H](O)[C@H](O)[C@@H](CO)O[C@H]4O)=CC3=O)[C@@H](C)CC[C@]12C | 6.25 mg/L (≈ 12.8 µM) | 11.5 ppm | 38%
5 | CC1=CCC[C@H]2[C@](C)(CC3=CC(=O)C(N)=CC3=O)[C@@H](C)CC[C@]12C | 50 mg/L (≈ 153 µM) | 0.23 ppm | 55%
6 | CNC1=CC(=O)C(C[C@]2(C)[C@@H](C)CC[C@]3(C)C(C)=CCC[C@@H]23)=CC1=O | > 100 mg/L | 0.34 ppm | 57%
7 | CCNC1=CC(=O)C(C[C@]2(C)[C@@H](C)CC[C@]3(C)C(C)=CCC[C@@H]23)=CC1=O | > 100 mg/L | 0.27 ppm | 38%
8 | CC1=CCC[C@H]2[C@](C)(Cc3cc(=O)c4[nH]c5ncnc6ncn(c=4c3=O)c65)[C@@H](C)CC[C@]12C | 12.5 mg/L (≈ 28.2 µM) | 70.2 ppm | 27%
9 | CC1=CCC[C@H]2[C@](C)(CC3=CC(=O)C=CC3=O)[C@@H](C)CC[C@]12C [AVARONE] | 1.56 mg/L (≈ 4.99 µM) | 0.14 ppm | 63%
10 | CC1(C)S[C@@H]2[C@H](NC(=O)Cc3ccccc3)C(=O)N2[C@H]1C(=O)[O-].[Na+] [PENICILLIN G SODIUM] | 0.04 mg/L | – | –
